Patent publication EP0054756A2, “Antibacterial benzylpyrimidines” (THE WELLCOME FOUNDATION LIMITED, priority 1980, dated 1982)
≈ marks a conversion by molar mass, not a printed value. Where “and” joins values, the source holds several entries; their conditions need not be identical. Equal entries are not always repeated. Structures can show the parent of a compound that is named as a salt. Where two headings read alike, the source gives them in different places.

Tests used:
[1] = test system: St. pyogenes; assay: In vitro antibacterial activity (MIC); assay type: cell-based; details: for MIC: Streptococcus pyogenes
[2] = test system: Strep.Faecalis CN 478; assay: In vitro antibacterial activity (MIC); assay type: cell-based; details: for MIC: Enterococcus faecalis, CN478
[3] = test system: Staph.aureus CN 491; assay: In vitro antibacterial activity (MIC); assay type: cell-based; details: for MIC: Staphylococcus aureus
[4] = test system: E. coli CN 314; assay: In vitro antibacterial activity (MIC); assay type: cell-based; details: Escherichia coli, CN314
[5] = target: Dihydrofolate reductase (Neisseria gonorrhoeae, UniProt P04174); assay: biochemical; details: N. gonorrhea enzyme; read-out: Dihydrofolate reductase inhibition, I50 x 10^8
[6] = target: Dihydrofolate reductase (Escherichia coli, UniProt P0ABQ4); assay: Dihydrofolate reductase inhibition; assay type: biochemical, E. coli
[7] = target: T1, Dihydrofolate reductase (Rattus norvegicus, UniProt Q920D2); assay: Dihydrofolate reductase inhibition; assay type: biochemical, Rat liver
T1 construct: Rat liver; from tissue; host or cells: rat liver
T1 sequence (Q920D2 1-187): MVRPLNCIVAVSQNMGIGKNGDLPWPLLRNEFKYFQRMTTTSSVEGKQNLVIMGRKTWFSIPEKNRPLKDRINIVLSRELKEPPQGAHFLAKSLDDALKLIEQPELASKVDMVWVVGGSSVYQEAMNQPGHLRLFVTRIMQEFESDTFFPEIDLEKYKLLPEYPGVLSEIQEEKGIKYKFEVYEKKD

[8] = LD50 intraperitoneal in male rats; details: rat, in vivo, ip
Experimental: The LD50's ( expressed in rng/kg intraperitoneal) of two compounds of the present invention were determined in male rats.

[9] = test system: N. gonorrhea; assay: In vitro antibacterial activity versus TMP, Wellcome test; assay type: cell-based; details: activity relative to trimethoprim
[10] = test system: N. gonorrhea; assay: In vitro antibacterial activity versus TMP, Difco test; assay type: cell-based; details: activity relative to trimethoprim
[11] = target: Dihydrofolate reductase (Plasmodium berghei, UniProt Q27713); assay: biochemical; details: P. berghei enzyme; read-out: Dihydrofolate reductase inhibition, I50 x 10^8
[12] = test system: Staphylococcus aureus; assay: In vitro MIC against bovine mastitis strains; assay type: cell-based; details: read-out: Approximate MIC
Description: (§1) All organisms were isolated from the bovine udder.

[13] = test system: Streptococcus agalactiae; assay: In vitro MIC against bovine mastitis strains; assay type: cell-based; details: read-out: Approximate MIC
Description: as §1

[14] = test system: Streptococcus dysgalactiae; assay: In vitro MIC against bovine mastitis strains; assay type: cell-based; details: read-out: Approximate MIC
Description: as §1

[15] = test system: Streptococcus uberis; assay: In vitro MIC against bovine mastitis strains; assay type: cell-based; details: Internal Ref. No. 359, isolated from the bovine udder, read-out: Approximate MIC
Description: as §1

[16] = test system: Staphylococcus aureus; assay: In vitro MIC against bovine mastitis strains; assay type: cell-based; details: "OXFORD", Internal Ref. No. 6571, read-out: Approximate MIC
[17] = read-out: MIC St. pyogenes CN 10
[18] = read-out: MIC St. pyogenes S3640
[19] = Internal Ref. No. 316, isolated from the bovine udder
[20] = Internal Ref. No. 317, isolated from the bovine udder
[21] = Internal Ref. No. 348, isolated from the bovine udder
[22] = Internal Ref. No. 349, isolated from the bovine udder
[23] = Internal Ref. No. 352, isolated from the bovine udder
[24] = Internal Ref. No. 353, isolated from the bovine udder
[25] = Internal Ref. No. 321, isolated from the bovine udder
[26] = Internal Ref. No. 371, isolated from the bovine udder
[27] = Internal Ref. No. 366, isolated from the bovine udder
[28] = Internal Ref. No. 367, isolated from the bovine udder
[29] = Rat liver enzyme, read-out: Dihydrofolate reductase inhibition, I50 x 10^8
[30] = E. coli enzyme, read-out: Dihydrofolate reductase inhibition, I50 x 10^8

Compound: COc1cc(Cc2cnc(N)nc2N)cc(OCCSCc2ccccc2)c1OC [Example 15, 2,4-Diamino-5-(3,4-dimethoxy-5-(2-(benzylthio)ethoxy)benzyl)pyrimidine]
- MIC [1, 17]: 0.5 µg/mL (≈ 1.17 µM)
- MIC [1, 18]: 0.5 µg/mL (≈ 1.17 µM)
- MIC [2]: 0.1 µg/mL (≈ 0.234 µM)
- MIC ([3]; CN491): 0.05 µg/mL (≈ 0.117 µM)
- MIC [4]: 0.5 µg/mL (≈ 1.17 µM)
- IC50 [5]: 18 nM
- IC50 [6]: 2 nM
- IC50 [7]: 47000 nM

Compound: COc1cccc(CCCOc2cc(Cc3cnc(N)nc3N)cc(OC)c2OC)c1 [compound 2, 2,4-Diamino-5-(3,4-dimethoxy-5-(3-(m-methoxyphenyl)propoxy)benzyl)pyrimidine]
- LD50 [8]: > 100 mg/kg
- MIC [1, 17]: 1 µg/mL (≈ 2.36 µM)
- MIC [1, 18]: 1 µg/mL (≈ 2.36 µM)
- MIC [2]: 0.3 µg/mL (≈ 0.707 µM)
- MIC ([3]; CN491): 0.3 µg/mL (≈ 0.707 µM)
- MIC [4]: 10 µg/mL (≈ 23.6 µM)
- Act., vs TMP N. gonorrhea Wellcome test [9]: 3.20
- Act., vs TMP N. gonorrhea Difco test [10]: 9.63
- IC50 [5]: 18 nM
- IC50 [6]: 57 nM
- IC50 [7]: 83000 nM
- IC50 [11]: 57 nM
- MIC [12, 19]: 0.025 µM (≈ 0.0106 µg/mL)
- MIC [12, 20]: 0.025 µM (≈ 0.0106 µg/mL)
- MIC [12, 21]: 0.025 µM (≈ 0.0106 µg/mL)
- MIC [12, 22]: 0.025 µM (≈ 0.0106 µg/mL)
- MIC [12, 23]: 0.075 µM (≈ 0.0318 µg/mL)
- MIC [12, 24]: 0.025 µM (≈ 0.0106 µg/mL)
- MIC [13, 25]: 0.25 µM (≈ 0.106 µg/mL)
- MIC [13, 26]: 0.75 µM (≈ 0.318 µg/mL)
- MIC [14, 27]: 0.75 µM (≈ 0.318 µg/mL)
- MIC [14, 28]: 0.25 µM (≈ 0.106 µg/mL)
- MIC [15]: 2.5 µM (≈ 1.06 µg/mL)
- MIC [16]: 0.025 µM (≈ 0.0106 µg/mL)

Compound: CCc1cc(Cc2cnc(N)nc2N)cc(CC)c1OCCOCc1ccccc1 [Example 6, 2,4-Diamino-5-(3,5-diethyl-4-(2-benzyloxyethoxy)benzyl)pyrimidine]
- MIC [1, 17]: 3 µg/mL (≈ 7.38 µM)
- MIC [1, 18]: 1 µg/mL (≈ 2.46 µM)
- MIC [2]: 0.3 µg/mL (≈ 0.738 µM)
- MIC ([3]; CN491): 3 µg/mL (≈ 7.38 µM)
- MIC [4]: 10 µg/mL (≈ 24.6 µM)
- Act., vs TMP N. gonorrhea Wellcome test [9]: 0.35
- IC50 [5]: 48 nM
- IC50 [7, 29]: 26000 nM
- IC50 [11]: 34 nM

Compound: 2,4-diamino-5-(3,4-dime-thoxy-5-(3-p-nitrophenyl-propoxy)benzyl)pyrimidine
- IC50 [6, 30]: 17 nM
- IC50 [7, 29]: 25000 nM

Compound: COc1cc(Cc2cnc(N)nc2N)cc(OCCCCOc2ccccc2)c1OC [Example 10, 2,4-Diamino-5-(3,4-dimethoxy-5-(4-phenoxybutoxy)benzyl)pyrimidine hydrochloride]
- IC50 [5]: 19 nM
- IC50 [6]: 4 nM
- IC50 [7]: 74000 nM

Compound: COc1cc(Cc2cnc(N)nc2N)cc(OCCOCc2ccccc2)c1OC [compound 4, 2,4-Diamino-5-(3,4-dimethoxy-5-(2-benzyloxyethoxy)benzyl)pyrimidine]
- IC50 [5]: 78 nM
- IC50 [6]: 5.4 nM
- IC50 [7]: 300000 nM
- MIC [12, 19]: 0.25 µM (≈ 0.103 µg/mL)
- MIC [12, 20]: 0.075 µM (≈ 0.0308 µg/mL)
- MIC [12, 21]: 0.25 µM (≈ 0.103 µg/mL)
- MIC [12, 22]: 0.075 µM (≈ 0.0308 µg/mL)
- MIC [12, 23]: 0.25 µM (≈ 0.103 µg/mL)
- MIC [12, 24]: 0.075 µM (≈ 0.0308 µg/mL)
- MIC [13, 25]: 0.25 µM (≈ 0.103 µg/mL)
- MIC [13, 26]: 2.5 µM (≈ 1.03 µg/mL)
- MIC [14, 27]: 3.3 µM (≈ 1.35 µg/mL)
- MIC [14, 28]: 1 µM (≈ 0.41 µg/mL)
- MIC [15]: 2.5 µM (≈ 1.03 µg/mL)
- MIC [16]: 0.075 µM (≈ 0.0308 µg/mL)

Compound: COc1cc(Cc2cnc(N)nc2N)cc(OCCCOc2ccccc2)c1OC [compound 5, 2,4-Diamino-5-(3,4-dimethoxy-5-(3-phenoxypropoxy)benzyl)pyrimidine]
- MIC [1, 17]: 0.3 µg/mL (≈ 0.731 µM)
- MIC [1, 18]: 0.3 µg/mL (≈ 0.731 µM)
- MIC [2]: 0.1 µg/mL (≈ 0.244 µM)
- MIC ([3]; CN491): 0.1 µg/mL (≈ 0.244 µM)
- MIC [4]: 1 µg/mL (≈ 2.44 µM)
- Act., vs TMP N. gonorrhea Wellcome test [9]: 4.12
- Act., vs TMP N. gonorrhea Difco test [10]: 11.28
- IC50 [5]: 32 nM
- IC50 [6]: 37 nM
- IC50 [7]: 80000 nM
- IC50 [11]: 150 nM

Compound: COc1cc(Cc2cnc(N)nc2N)cc(OCCSc2ccccc2)c1OC [Example 14, 2,4-Diamino-5-(3,4-dimethoxy-5-(2-(phenylthio)ethoxy)benzyl)pyrimidine]
- MIC [1, 17]: 0.5 µg/mL (≈ 1.21 µM)
- MIC [1, 18]: 0.5 µg/mL (≈ 1.21 µM)
- MIC [2]: 0.5 µg/mL (≈ 1.21 µM)
- MIC ([3]; CN491): 0.5 µg/mL (≈ 1.21 µM)
- MIC [4]: 1 µg/mL (≈ 2.42 µM)
- IC50 [5]: 11.4 nM
- IC50 [6]: 5.3 nM
- IC50 [7]: 37000 nM

Compound: 2,4-dimethoxy-5-(dime-thoxy-5-(3-p-aminophenyl-propoxy)benzyl)pyrimidine
- IC50 [5]: 29 nM
- IC50 [6, 30]: 7.2 nM
- IC50 [7, 29]: 81000 nM

Compound: COc1cc(Cc2cnc(N)nc2N)cc(OCCCCc2ccccc2)c1OC [compound 3, 2,4-Diamino-5-(3,4-dimethoxy-5-(4-phenylbutoxy)benzyl)pyrimidine]
- MIC [1, 17]: 0.1 µg/mL (≈ 0.245 µM)
- MIC [1, 18]: 0.1 µg/mL (≈ 0.245 µM)
- MIC [2]: 0.1 µg/mL (≈ 0.245 µM)
- MIC ([3]; CN491): 0.03 µg/mL (≈ 0.0734 µM)
- MIC [4]: 3 µg/mL (≈ 7.34 µM)
- Act., vs TMP N. gonorrhea Wellcome test [9]: 1.54
- Act., vs TMP N. gonorrhea Difco test [10]: 11.35
- IC50 [5]: 18 nM
- IC50 [6]: 2.3 nM
- IC50 [7]: 43000 nM
- IC50 [11]: 11 nM
- MIC [12, 19]: 0.075 µM (≈ 0.0306 µg/mL)
- MIC [12, 20]: 0.025 µM (≈ 0.0102 µg/mL)
- MIC [12, 21]: 0.075 µM (≈ 0.0306 µg/mL)
- MIC [12, 22]: 0.075 µM (≈ 0.0306 µg/mL)
- MIC [12, 23]: 0.075 µM (≈ 0.0306 µg/mL)
- MIC [12, 24]: 0.025 µM (≈ 0.0102 µg/mL)
- MIC [13, 25]: 0.25 µM (≈ 0.102 µg/mL)
- MIC [13, 26]: 0.25 µM (≈ 0.102 µg/mL)
- MIC [14, 27]: 0.75 µM (≈ 0.306 µg/mL)
- MIC [14, 28]: 0.75 µM (≈ 0.306 µg/mL)
- MIC [15]: 0.25 µM (≈ 0.102 µg/mL)
- MIC [16]: 0.025 µM (≈ 0.0102 µg/mL)

Compound: COc1cc(Cc2cnc(N)nc2N)cc(OC)c1OC [Trimethoprim, reference compound]
- MIC ([1]; strain CN 10, cell prints compound/trimethoprim, read-out: MIC St. pyogenes CN 10): 0.5 µg/mL (≈ 1.72 µM)
- MIC St. pyogenes CN 10 ([1]; strain CN 10, cell prints compound/trimethoprim): 0.3/0.3 ug/ml and 0.3 ug/ml
- MIC [2]: 0.1 µg/mL (≈ 0.344 µM)
- MIC Strep.Faecalis CN 478 ([2]; strain CN 478, cell prints compound/trimethoprim): 0.1 µg/mL (≈ 0.344 µM)
- MIC ([3]; CN491, strain CN 491, cell prints compound/trimethoprim): 0.5 µg/mL (≈ 1.72 µM)
- MIC Staph.aureus CN 491 ([3]; strain CN 491, cell prints compound/trimethoprim): 0.3 ug/ml and 0.3/0.3 ug/ml and 0.5/0.5 ug/ml
- MIC [4]: 0.1 µg/mL (≈ 0.344 µM)
- MIC [12, 19]: 1 µM (≈ 0.29 µg/mL)
- MIC [12, 20]: 0.33 µM (≈ 0.0958 µg/mL)
- MIC [12, 21]: 1 µM (≈ 0.29 µg/mL)
- MIC [12, 22]: 1 µM (≈ 0.29 µg/mL)
- MIC [12, 23]: 3.3 µM (≈ 0.958 µg/mL)
- MIC [12, 24]: 1 µM (≈ 0.29 µg/mL)
- MIC [13, 25]: 1 µM (≈ 0.29 µg/mL)
- MIC [13, 26]: 3.3 µM (≈ 0.958 µg/mL)
- MIC [14, 27]: 3.3 µM (≈ 0.958 µg/mL)
- MIC [14, 28]: 1 µM (≈ 0.29 µg/mL)
- MIC [15]: 10 µM (≈ 2.9 µg/mL)
- MIC [16]: 1 µM (≈ 0.29 µg/mL)
